Assay results: patent US8551984B2, “Aminopyrimidines as SYK inhibitors” (Merck Sharp & Dohme Corp., priority 2009, dated 2013)

Biological target: recombinant human SYK (GST-hSYK fusion protein) (Homo sapiens, UniProt P43405)
Assay: biochemical
[1] = rhSYK Activity (IC50), recombinant human GST-SYK 5 pM, ATP 25 μM, biotinylated substrate peptide 250 nM, HTRF, 10-dose titration

Excerpt: Homogeneous Time-Resolved Fluorescence (HTRF) Assay for the Recombinant Human SYK Enzyme:

Cc1cc(Nc2nccc(C(F)(F)F)n2)cc(-c2cnc(C3(O)CCCN(C(=O)c4nn[nH]c4C(F)(F)F)CC3)s2)c1 (single isomer, unassigned) [Example 54D-107]
IC50 (rhSYK Activity, Table 54D): < 100 nM

Cc1cc(Nc2nccc(C(F)(F)F)n2)cc(-c2cnc(CNC3CNC(=O)C3)s2)c1 (stereo not drawn) [Example 88A-36]
IC50 [1]: < 100 nM

COc1ccnc(Nc2cc(C)cc(-c3cnc(C4(O)CCN(C(N)=O)CC4)s3)c2)n1 [Example 54A-19]
IC50 (RHSYK Activity, Table 54A): < 100 nM

Cc1cc(Nc2nccc(C(F)(F)F)n2)cc(-c2cnc(C3(O)CCN(C(=O)[C@@H]4CCC(=O)N4)CC3)s2)c1 [Example 54A-38]
IC50 (RHSYK Activity, Table 54A): < 100 nM

COc1ccnc(Nc2cc(C)cc(-c3cnc(C4(O)CCN(C(N)=O)C4)s3)c2)n1 (stereo not drawn) [54B-10]
IC50 (rhSYK Activity, Table 54B): < 100 nM

Cc1cc(Nc2nccc(OC3CCC(N)CC3)n2)cc(-c2cnc(C3(O)CCC3)s2)c1 (stereo not drawn) [Example 94A-18]
IC50 [1]: < 100 nM

Cc1cc(Nc2nccc(C(F)(F)F)n2)cc(-c2cnc(CN3CC(COP(C)(C)=O)C3)s2)c1 [Example 88B-16]
IC50 [1]: < 100 nM

Cc1cc(Nc2nccc(C(C)C)n2)cc(-c2cnc(C3(O)CCCN(C(=O)CCC(N)=O)CC3)s2)c1 (stereo not drawn) [Example 54D-15]
IC50 (rhSYK Activity, Table 54D): < 100 nM

Cc1cc(Nc2nccc(C(F)(F)F)n2)cc(-c2cnc(C3(O)CCCN(C(=O)CC4CCOC4)CC3)s2)c1 (stereo not drawn) [Example 54D-67]
IC50 (rhSYK Activity, Table 54D): < 100 nM

Cc1cc(Nc2nccc(OCCC3CN(C)CCO3)n2)cc(-c2cnc(C3(O)CCC3)s2)c1 (stereo not drawn) [Example 108A-25]
IC50 (rhSYK Activity, Table 108A): < 100 nM

Cc1cc(Nc2nccc(C(F)(F)F)n2)cc(-c2cnc(C3(O)CCN(C(=O)CCC#N)CC3)s2)c1 [Example 54A-23]
IC50 (RHSYK Activity, Table 54A): < 100 nM

Cc1cc(Nc2nccc(OC3CCNCC3)n2)cc(-c2cnc(C(C)(O)C(F)(F)F)s2)c1 (stereo not drawn) [Example 94B-6]
IC50 [1]: < 100 nM

Cc1cc(Nc2nccc(C(F)(F)F)n2)cc(-c2cnc(CNC3CS(=O)(=O)CC3O)s2)c1 (stereo not drawn) [Example 88A-57]
IC50 [1]: < 100 nM

CC(=O)c1ncc(-c2cc(Nc3nccc(C(F)(F)F)n3)cc(N3CCOCC3)c2)s1 [24-3]
IC50 (rhSYK Activity, Table 24): < 100 nM

COC(=O)C1CCC(O)(c2ncc(-c3cc(C)cc(Nc4nccc(C)n4)c3)s2)CC1C (stereo not drawn) [Example 113A-10]
IC50 (rhSYK Activity, Table 113A): < 100 nM

Cc1cc(Nc2nccc(OCCCO)n2)cc(-c2cnc(C3(O)CCC3)s2)c1 [Example 108A-35]
IC50 (rhSYK Activity, Table 108A): < 100 nM

Cc1cc(Nc2ncc(F)cn2)cc(-c2cnc(C3(O)CCC(C(=O)O)C(C)(C)C3)s2)c1 (single isomer, unassigned) [Example 33A-46]
IC50 (rhSYK Activity, Table 33-A): 100 to 1000 nM

COC(=O)C1CC=C(c2ncc(-c3cc(C)cc(Nc4nccc(C(F)(F)F)n4)c3)s2)CC1(C)C (stereo not drawn) [Example 36A-13]
IC50 (rhSYK Activity, Table 36A): 100 to 1000 nM

CNC(=O)NCc1ncc(-c2cc(C)cc(Nc3nccc(C(F)(F)F)n3)c2)s1 [Example 88A-61]
IC50 [1]: < 100 nM

Cc1cc(Nc2nccc(C(F)(F)F)n2)cc(-c2cnc(C3(O)C(C)CC(C(=O)O)CC3C)s2)c1 (stereo not drawn) [Example 113B-30]
IC50 (rhSYK Activity, Table 113B): < 100 nM

COC(=O)C1CCC(N2CCC(O)(c3ncc(-c4cc(C)cc(Nc5nccc(C(F)(F)F)n5)c4)s3)C2)C1 (stereo not drawn) [54B-34]
IC50 (rhSYK Activity, Table 54B): < 100 nM

Cc1cc(Nc2nccc(C3CC3)n2)cc(-c2cnc([C@]3(O)CC[C@@H](C(=O)O)[C@@H](C)C3)s2)c1 [Example 113A-20]
IC50 (rhSYK Activity, Table 113A): < 100 nM

CCOC(=O)C1CCC(Oc2ccnc(Nc3cc(C)cc(-c4cnc(C5(O)CCC5)s4)c3)n2)CC1 (stereo not drawn) [Example 94A-16, ethyl 4-{[2-({3-[2-(1-hydroxycyclobutyl)-1,3-thiazol-5-yl]-5-methylphenyl}-amino)pyrimidin-4-yl]oxy}cyclohexanecarboxylate]
IC50 [1]: 100 to 1000 nM

Cc1cc(Nc2nccc(C(F)(F)F)n2)cc(-c2cnc(C3(O)CCCN(C(N)=O)CC3)s2)c1 (single isomer, unassigned) [Example 54D-119]
IC50 (rhSYK Activity, Table 54D): < 100 nM

Cc1cc(Nc2nccc(C(F)(F)F)n2)cc(-c2cnc(C3(O)CCCN(C(=O)C4CCCOC4)CC3)s2)c1 (stereo not drawn) [Example 54D-68]
IC50 (rhSYK Activity, Table 54D): < 100 nM

Cc1cc(Nc2nccc(OCC3COCCO3)n2)cc(-c2cnc(C3(O)CCC3)s2)c1 (stereo not drawn) [Example 94A-4]
IC50 [1]: < 100 nM

CCn1cc(NCc2ncc(-c3cc(C)cc(Nc4nccc(C(F)(F)F)n4)c3)s2)nn1 [Example 88A-26]
IC50 [1]: < 100 nM

Cc1cc(Nc2nccc(OCCn3ccnn3)n2)cc(-c2cnc(C3(O)CCC3)s2)c1 [Example 108A-13]
IC50 (rhSYK Activity, Table 108A): < 100 nM

Cc1cc(Nc2nccc(C(F)(F)F)n2)cc(-c2cnc(C(=O)N3CC[C@@H](CO)C3)s2)c1 [Example 87B-11]
IC50 [1]: < 100 nM

Cc1cc(Nc2nccc(C(F)(F)F)n2)cc(-c2cnc(C3(O)CC(C)C(C(=O)OC(C)C)C(C)C3)s2)c1 (stereo not drawn) [Example 113B-27]
IC50 (rhSYK Activity, Table 113B): 100 to 1000 nM

Cc1cc(Nc2nccc(C(F)(F)F)n2)cc(-c2cnc(C(C)(O)c3ccc(C(=O)O)s3)s2)c1 (single isomer, unassigned) [Example 33D-21]
IC50 (rhSYK Activity, Table 33D): < 100 nM

C=C(F)CNCc1ncc(-c2cc(C)cc(Nc3nccc(C(F)(F)F)n3)c2)s1 [Example 88A-8]
IC50 [1]: < 100 nM

Cc1cc(Nc2ncc(Cl)cn2)cc(-c2cnc(C3(O)CCC3)s2)c1 [Example 100A-5]
IC50 [1]: 100 to 1000 nM
